{"source": "patent US7553667B2", "about": "“Regulation of gene expression using chromatin remodelling factors” (Her Majesty the Queen in right of Canada as represented by …, priority 2002, dated 2009)", "key": {"BnSCL1 gene expression": {"test_system": "BnSCL1 gene expression", "test": "Quantitative one-step RT-PCR of BnSCL1 expression in treated seedlings", "format": "in vivo, Brassica napus", "experimental": "In exogenous applied auxin treatments, four-leaf stage seedlings grown at 20° C. were treated with a foliar spray containing 1 mM 2,4-D and 50 mM sodium phosphate, pH 7.5. The four leaves were collected at 30 min, 60 min and 180 min after the first foliar application of 2,4-D. For the measurement of response of shoots and roots to auxin, sterilized seeds were germinated on plates in a growth chamber with continuous light at 20° C., and 10 dpg seedlings were supplied with varied concentration of 2,4-D. In the auxin transport inhibition experiments, 9 dpg seedlings were incubated in the medium supplemented with 50 μM NPA dissolved in 0.1% DMSO for 24 h before the 2,4-D treatment. For the HDAC inhibitor treatments, 10 mM sodium butyrate was added onto the growth medium and incubated for 24 h followed by exogenous 2,4-D application at varied concentrations.\nTotal RNA extracted as described above was treated with Amplification Grade Deoxyribonuclease I (GibcoL BRL) following the manufacture's instructions. The RNA samples were then directly used for reverse transcription prior to amplification without purification. The RT-PCR was quantitatively performed and completed in a one-step reaction using […] One-Step RT-PCR System (GibcoL BRL) as described by Gao et al. (2002). Gene-specific sense and anti-sense primers used to generate a 960 bp fragment of Brassica napus Actin, as an internal standard, were as described in Gao et al., (2002). Gene-specific primers for the generation of BnSCL1, BnIAA1 and BnIAA12 fragments were as follows: […]"}, "bnKCP1 expression": {"test_system": "bnKCP1 expression", "test": "Northern blot of bnKCP1 expression in leaves of treated seedlings", "format": "in vivo, Brassica napus", "settings": "for bnKCP1 transcript in leaves after treatment: four-leaf stage seedlings, room temperature, 10 μM inomycin or 20 mM LaCl3", "experimental": "Brassica napus L. cv Cascade (winter type), Westar (spring type) and DES010 (spring type) were used for the isolation of genomic DNA and total RNA. Leaves, flowers, stems, siliques and immature seeds were harvested from plants cultured in a controlled-environment greenhouse programmed for a photoperiod of 16 h day and 8 h night. Roots were obtained by culturing sterilized seeds in 0.8% agar plates containing ½ MS medium and 1% sucrose. For cold acclimation (4° C.), abscisic acid (250 μM), drought and high salt (850 mM NaCl) treatments, four-leaf stage seedlings were treated and fourth fully expanded leaf blades were harvested as described by Gao et al. (2002). LaCl3 and inomycin treatments were carried out by watering four-leaf stage plants with 20 mM LaCl3 and 10 μM inomycin, respectively. Plants were covered with SARAN Wrap to slow evaporation.\nTotal RNA was isolated from the tissues of B. napus L. cv DES010. These included leaves and stems of four-leaf stage seedlings, flowers, immature siliques of adult plants, and roots of cultured seedlings as described by Gao et al. (2001). Probe labelling, hybridization, washing and membrane stripping were performed as described above in the Southern blot analysis Section."}, "GST-HDA19": {"molecular_target": "T1, GST-HDA19 (Arabidopsis thaliana, UniProt O22446)", "T1 construct": "made in house; host or cells: E. coli BL21-CodonPlus (DE3)-RP", "T1 sequence (O22446 1-501)": "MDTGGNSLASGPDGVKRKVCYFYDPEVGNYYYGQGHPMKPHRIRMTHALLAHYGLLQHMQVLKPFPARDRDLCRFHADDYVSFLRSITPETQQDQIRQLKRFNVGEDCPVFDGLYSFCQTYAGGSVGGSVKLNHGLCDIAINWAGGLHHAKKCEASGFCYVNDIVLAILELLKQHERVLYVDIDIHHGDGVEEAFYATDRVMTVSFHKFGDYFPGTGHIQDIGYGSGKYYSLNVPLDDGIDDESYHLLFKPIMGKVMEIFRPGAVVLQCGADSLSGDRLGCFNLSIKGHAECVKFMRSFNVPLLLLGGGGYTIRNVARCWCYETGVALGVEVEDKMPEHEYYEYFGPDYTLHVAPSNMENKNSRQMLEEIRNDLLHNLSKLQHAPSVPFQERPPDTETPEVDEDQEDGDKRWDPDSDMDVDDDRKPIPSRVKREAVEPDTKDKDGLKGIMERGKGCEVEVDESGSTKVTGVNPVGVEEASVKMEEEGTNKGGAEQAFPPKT", "test": "GST pulldown affinity assay of bnKCP1 and mutants with GST-HDA19", "format": "binding", "settings": "[35S]Met-labeled in vitro translated protein", "excerpt": "(§1) The full coding regions of the Arabidopsis HAT, Gcn5 (Dr. M. Thomashow, Michigan State University, MI), and HDA19 (Accession # AF195547) were PCR amplified, sequence analyzed and inserted in-frame with the GST (glutathione s-transferase) into the SalI and NotI sites of vector pGEX-6P-2 (Amersham Pharmacia). The forward used for the amplification of Gcn5 was:\n(§2) Recombinant pGEX-6P-2 plasmids were used to transform E. coli BL21-CodonPlus (DE3)-RP competent cells (Stratagene). Expression and purification under non-denaturing conditions were carried out as described by Gao et al. (Gao, M.-J. et al., 2002). The GST-Gcn5 and GST-HDA19 fusion proteins were analyzed by 7.5% SDS-PAGE (SDS-polyacrylamide gel electrophoresis) and western blotting with rabbit anti-GST-Pi polyclonal antibody (Chemicon) using ECL Western blotting analysis system (Amersham Pharmacia).\n(§3) Full-length bnKCP1 and truncated mutant bnKCP1^1-160 and bnKCP1^1-80 proteins labeled with [^35S]methionine were produced using TNT-Quick Coupled Transcription/Translation System (Promega) according to the manufacture's instructions, with some modifications. A total of 1 μl of RNase inhibitor (GibcoL BRL) and 1 μl of protease inhibitors set (Roche) were added to the lysate reaction. After incubation for 90 min at 30° C., RNase A was added to the reaction to a final concentration of 0.2 mg/ml and incubated for 5 min at the same temperature.\nIn vitro protein interaction was detected with GST pulldown affinity assays as described by Ahmad et al. (1999) with some modifications. Briefly, 6 μg of GST or 4 μg of GST-fusion protein was incubated with 5 μl of [^35S]Met-labeled translation mixture in 200 μl of bead-binding buffer (50 mM K-phosphate, pH 7.6, 450 mM KCl, 10 mM MgCl2, 10% glycerol, 1% Triton X-100, 1% BSA and 1 μl of diluted 1:12 protease inhibitors set) for 1 h at room temperature. After incubation, 20 μl of 50% slurry of glutathione-Sepharose beads containing 10 mg/ml of BSA and 4 μg of EtBr was mixed with the reaction mixture followed by gentle rotation for 1 h at 4° C. After washing six times with 1.2 ml of bead-binding buffer without BSA and EtBr but containing 12 μl of protease inhibitors set (Roche), the bound proteins were eluted with 30 μl of 2×SDS loading buffer, boiled for 2 min and analyzed by 12% SDS-PAGE. After electrophoresis, the gels were dried, treated with Amplify (Amersham Pharmacia) and subjected to fluorography."}, "[1]": {"test_system": "lacZ reporter gene driven by promoter containing GAL4 DNA binding sites", "test": "Transactivation assay of bnKCP1 using yeast one-hybrid system", "format": "cell-based, yeast MaV203", "settings": "transactivation in yeast", "excerpt": "Effector plasmids pDBLeu-bnKCP1^1-160, pDBLeu-bnKCP1^1-80, pDBLeu-bnKCP1^81-215 and pDBLeu-bnKCP1 were constructed by ligating the PCR-amplified fragments ΔbnKCP1^1-160, ΔbnKCP1^1-80, ΔbnKCP1^81-215 and the coding region of bnKCP1 into the SalI/NotI sites of pDBLeu vector (GibcoL BRL) in-frame with the GAL4 DB sequence. The oligonucleotide primers for PCR amplification were as follows: […]\nThe three reporter genes, lacZ, HIS3 and URA3, which were chromosomally integrated in the genome of MaV203 yeast cells were driven by unrelated promoters containing GAL4 DNA binding sites (GibcoL BRL). For transient assays, the effector constructs or the negative control vector pDBLeu were transferred to the MaV203 yeast cells. The β-galactosidase activity was measured using CPRG (chlorophenol red-β-D-galactopyranoside) according to the manufacturer's instructions (GibcoL BRL). The MaV203 cells containing plasmids pDBLeu-HDA19 and pPC86-bnKCP1 were used as the positive control. In addition, we used three yeast control strains A, B, and C (GibcoL BRL), which were developed to contain plasmid pairs expressing fusion proteins with none, weak and moderately strong protein-protein interaction strength, respectively. Transient Expression of the GUS-bnCKP1 Fusion Protein"}, "GST-Gcn5": {"molecular_target": "T2, GST-Gcn5 (Arabidopsis thaliana, UniProt Q9AR19)", "T2 construct": "made in house; host or cells: E. coli BL21-CodonPlus (DE3)-RP", "T2 sequence (Q9AR19 1-568)": "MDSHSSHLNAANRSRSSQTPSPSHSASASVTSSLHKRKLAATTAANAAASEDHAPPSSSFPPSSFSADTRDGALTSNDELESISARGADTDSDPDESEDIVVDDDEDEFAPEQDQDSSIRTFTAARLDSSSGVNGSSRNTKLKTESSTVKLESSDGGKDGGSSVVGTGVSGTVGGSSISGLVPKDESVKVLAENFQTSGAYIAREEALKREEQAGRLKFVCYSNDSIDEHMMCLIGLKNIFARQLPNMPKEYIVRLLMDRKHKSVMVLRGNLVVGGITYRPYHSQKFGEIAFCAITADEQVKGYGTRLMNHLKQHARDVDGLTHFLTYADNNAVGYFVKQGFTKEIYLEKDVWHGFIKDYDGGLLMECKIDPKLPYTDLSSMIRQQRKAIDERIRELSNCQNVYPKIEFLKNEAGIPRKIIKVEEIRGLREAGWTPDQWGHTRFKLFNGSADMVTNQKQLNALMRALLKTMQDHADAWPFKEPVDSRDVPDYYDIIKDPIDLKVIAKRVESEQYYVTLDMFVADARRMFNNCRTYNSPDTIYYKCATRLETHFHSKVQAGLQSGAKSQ", "test": "GST pulldown affinity assay of bnKCP1 and mutants with GST-Gcn5", "format": "binding", "settings": "[35S]Met-labeled in vitro translated protein", "excerpt": "as §1, §2, §3\nIn vitro protein interaction was detected with GST pulldown affinity assays as described by Ahmad et al. (1999) with some modifications. […] After washing six times with 1.2 ml of bead-binding buffer without BSA and EtBr but containing 12 μl of protease inhibitors set (Roche), the bound proteins were eluted with 30 μl of 2×SDS loading buffer, boiled for 2 min and analyzed by 12% SDS-PAGE. […]"}}, "data": [{"molecule": "O=C(O)COc1ccc(Cl)cc1Cl", "note": "[2,4-D]", "values": [{"measurement": "BnSCL1 expression in roots", "setting": "BnSCL1 gene expression; 10 dpg seedlings, 100 μM required to produce an effect", "result": "upregulated"}, {"measurement": "expression of BnSCL1 in shoots", "setting": "BnSCL1 gene expression; 10 dpg seedlings, even at the lowest level (1 pM)", "result": "rapidly downregulated"}, {"measurement": "increase of BnSCL1 mRNA accumulation", "setting": "BnSCL1 gene expression; four-leaf stage seedlings, leaves, within 30 min of 1 mM foliar application, vs untreated plants", "result": "approximately 50%"}]}, {"molecule": "CC1=CC(=O)CC(C)(C)[C@@]1(O)/C=C/C(C)=C\\C(=O)O", "note": "[ABA, abscisic acid]", "values": [{"measurement": "bnKCP1 expression in leaf blades after treatment", "setting": "bnKCP1 expression; exogenous application for up to 8 hours, data not shown", "result": "not detected"}]}, {"molecule": "[Cl][La]([Cl])[Cl]", "note": "[LaCl3]", "values": [{"measurement": "bnKCP1 transcript in leaves after treatment", "setting": "bnKCP1 expression", "result": "undetectable"}]}, {"molecule": "O=C(O)c1ccccc1C(=O)Nc1cccc2ccccc12", "note": "[NPA, naphthylphthalamic acid]", "values": [{"measurement": "BnSCL1 mRNA accumulation profiles in response to auxin in shoots and roots", "setting": "BnSCL1 gene expression; 50 μM for 24 h before 2,4-D at different concentrations", "result": "not changed"}]}, {"molecule": "inomycin", "values": [{"measurement": "bnKCP1 transcript in leaves after treatment", "setting": "bnKCP1 expression", "result": "rapid (2 hrs) but short-lived"}]}, {"molecule": "ΔbnKCP1^1-160: C-terminal truncated mutant of bnKCP1, residues 1-160, lacking the KID domain (protein) MAGGGPTFSIELSAYGSDLPTDKASGDIPNEEGSGLSRVGSGIWSGRTVDYSSESSSSIGTPGDSEEEDEESEEDNDEEELGLASLRSLEDSLPSKGLSSHYKGKSKSFGNLGEIGSVKEVPKQENPLNKKRRLQIYNKLARKSFYSWQNPKSMPLLPVH", "values": [{"measurement": "in vitro binding to GST-HDA19", "setting": "GST-HDA19", "result": "no interaction"}, {"measurement": "influence of deletion of KID or GKSKS domains on β-galactosidase activity", "setting": "[1]", "result": "no significant influence"}, {"measurement": "in vitro binding to GST-Gcn5", "setting": "GST-Gcn5", "result": "no interaction"}]}, {"molecule": "ΔbnKCP1^1-80: C-terminal truncated mutant of bnKCP1, residues 1-80, lacking the KID domain (protein) MAGGGPTFSIELSAYGSDLPTDKASGDIPNEEGSGLSRVGSGIWSGRTVDYSSESSSSIGTPGDSEEEDEESEEDNDEEE", "values": [{"measurement": "in vitro binding to GST-HDA19", "setting": "GST-HDA19", "result": "no interaction"}, {"measurement": "influence of deletion of KID or GKSKS domains on β-galactosidase activity", "setting": "[1]", "result": "no significant influence"}, {"measurement": "in vitro binding to GST-Gcn5", "setting": "GST-Gcn5", "result": "no interaction"}]}, {"molecule": "bnKCPG^188: bnKCP1 with S188 mutated to G188 by site-directed mutagenesis (protein) MAGGGPTFSIELSAYGSDLPTDKASGDIPNEEGSGLSRVGSGIWSGRTVDYSSESSSSIGTPGDSEEEDEESEEDNDEEELGLASLRSLEDSLPSKGLSSHYKGKSKSFGNLGEIGSVKEVPKQENPLNKKRRLQIYNKLARKSFYSWQNPKSMPLLPVHEDNDDEEGDDGDLSDEERGGDVLARRPGFKNRALKSMSCFALSDLQEEEEEEEDE", "values": [{"measurement": "in vitro binding to GST-HDA19", "setting": "GST-HDA19", "result": "significantly reduced binding"}]}]}
